Measurements reported in patent US6372774B1, “Derivatives of N-phenylpyrazoles” (Rhone-Poulenc Agriculture Ltd., priority 1985, dated 2002).
Read-outs that look alike come from different tables or passages of the source.

How the values were obtained:
[1] = tested on: Phaedon cochleariae (Mustard Beetle); assay: Test 3 a): leaf disc spray test, Phaedon cochleariae larvae; type: in vivo; settings: for pest or weed control at 10 ppm / mortality at 5 ppm: Phaedon cochleariae, foliar; for pest or weed control at 10 ppm: read-out: Phaedon % m 10 ppm; for mortality at 5 ppm: read-out: mortality of larvae of Phaedon cochleariae
Source text: (§1) One or more dilutions of the compounds to be tested were made in 50% aqueous acetone.
(§2) a) Test species: Plutella xylostella (Diamond-back Moth) and Phaedon cochleariae (Mustard Beetle)
(§3) Turnip leaf discs were set in agar in petri-dishes and infected with 10 larvae (2nd instar Plutella or 3rd instar Phaedon). Four replicate dishes were assigned to each treatment and were sprayed under a Potter Tower with the appropriate test dilution. Four or five days after treatment the dishes were removed from the constant temperature (25° C.) room in which they had been held and the mean percentage mortalities of larvae were determined.

[2] = tested on: Plutella xylostella (Diamond-back Moth); assay: whole plant or invertebrate; type: in vivo; settings: foliar; for mortality at 500 ppm: read-out: mortality of larvae of Plutella xylostella; for pest or weed control at 500 ppm: read-out: Plutella % m 500 ppm
Source text: as §1, §2, §3

[3] = Test 3 method (a), application of 500 ppm

| Structure (SMILES) | pest or weed control at 10 ppm [1] [%] | mortality at 500 ppm [2] [%] | also measured |
| --- | --- | --- | --- |
| N#Cc1c(I)nn(-c2c(Cl)cc(C(F)(F)F)cc2Cl)c1N [Compound 116, 5-Amino-3-iodo-4-cyano-1-(2,6-dichloro-4-trifluoromethylphenyl)pyrazole] | 93 | 100 | – |
| CS(=O)(=O)c1c(C(F)(F)F)nn(-c2c(Cl)cc(C(F)(F)F)cc2Cl)c1N [Compound 130, 5-Amino-1-(2,6-dichloro-4-trifluoromethylphenyl)-4-methanesulphonyl-3-trifluoromethylpyrazole] | 100 | 100 | – |
| NC(=O)c1c(C(F)(F)F)nn(-c2c(Cl)cc(C(F)(F)F)cc2Cl)c1N [Compound 131, 5-Amino-4-carbamoyl-1-(2,6-dichloro-4-trifluoromethylphenyl)-3-trifluoromethylpyrazole] | 100 | – | pest or weed control at 500 ppm [2]: 58% |
| COC(=O)c1c(C(F)(F)F)nn(-c2c(Cl)cc(C(F)(F)F)cc2Cl)c1N [Compound 132, 5-Amino-1-(2,6-dichloro-4-trifluoromethylphenyl)-4-methoxycarbonyl-3-trifluoromethylpyrazole] | 100 | – | pest or weed control at 500 ppm [2]: 10% |
| CN(C)c1c(C#N)c(C(F)(F)F)nn1-c1c(Cl)cc(C(F)(F)F)cc1Cl [Compound 136, 4-Cyano-1-(2,6-dichloro-4-trifluoromethylphenyl)-5-dimethylamino-3-trifluoromethylpyrazole] | 56 | 100 | – |
| CCOC(=O)CNc1c(C#N)c(C(F)(F)F)nn1-c1c(Cl)cc(C(F)(F)F)cc1Cl [Compound 137, 4-Cyano-1-(2,6-dichloro-4-trifluoromethylphenyl)-5-ethoxycarbonylmethylamino-3-trifluoromethylpyrazole] | 100 | – | pest or weed control at 500 ppm [2]: 48% |
| CNc1c(C#N)c(C(F)(F)F)nn1-c1c(Cl)cc(C(F)(F)F)cc1Cl [Compound 138, 4-Cyano-5-methylamino-1-(2,6-dichloro-4-trifluoromethylphenyl)-3-trifluoromethylpyrazole] | 100 | 100 | – |
| CC(C)(C)C(=O)Nc1c(C#N)c(C(F)(F)F)nn1-c1c(Cl)cc(C(F)(F)F)cc1Cl [Compound 139, 4-Cyano-1-(2,6-dichloro-4-trifluoromethylphenyl)-5-(2,2-dimethylpropionamido)-3-trifluoromethylpyrazole] | 16 | 100 | – |
| Nc1c(Br)c(C(F)(F)F)nn1-c1c(Cl)cc(C(F)(F)F)cc1Cl [Compound 140, 5-Amino-4-bromo-1-(2,6-dichloro-4-trifluoromethylphenyl)-3-trifluoromethylpyrazole] | 84 | 100 | – |
| N#Cc1c(C(F)(F)F)nn(-c2c(Cl)cc(C(F)(F)F)cc2Cl)c1Br [Compound 141, 5-Bromo-4-cyano-1-(2,6-dichloro-4-trifluoromethylphenyl)-3-trifluoromethylpyrazole] | 100 | – | pest or weed control at 500 ppm [2]: 44% |
| Nc1c([N+](=O)[O-])c(C(F)(F)F)nn1-c1c(Cl)cc(C(F)(F)F)cc1Cl [Compound 143, 5-Amino-1-(2,6-dichloro-4-trifluoromethylphenyl)-4-nitro-3-trifluoromethylpyrazole] | 100 | 100 | – |
| CCOC(=O)N(C(=O)OCC)c1c(C#N)c(C(F)(F)F)nn1-c1c(Cl)cc(C(F)(F)F)cc1Cl [Compound 145, 4-Cyano-1-(2,6-dichloro-4-trifluoromethylphenyl)-5-bis(ethoxycarbonyl)amino-3-trifluoromethylpyrazole] | 100 | – | mortality at 500 ppm [2, 3]: 100% |
| N#Cc1c(C(F)(F)F)nn(-c2c(Cl)cc(C(F)(F)F)cc2Cl)c1N(C(=O)C1CC1)C(=O)C1CC1 [Compound 146, 4-Cyano-1-(2,6-dichloro-4-trifluoromethylphenyl)-5-bis(cyclopropanecarbonyl)amino-3-trifluoromethylpyrazole] | 85 | 100 | – |
| N#Cc1c(C(F)(F)F)nn(-c2c(Cl)cc(C(F)(F)F)cc2Cl)c1NC(=O)C1CC1 [Compound 147, 4-Cyano-1-(2,6-dichloro-4-trifluoromethylphenyl)-5-cyclopropanecarbonamido-3-trifluoromethylpyrazole] | – | – | Phaedon % m 10 ppm ([1]; Tables 1-3, % mortality at 10 ppm): 100% |
| Nc1c(Cl)c(C(F)(F)F)nn1-c1c(Cl)cc(C(F)(F)F)cc1Cl [Compound 148, 5-Amino-4-chloro-1-(2,6-dichloro-4-trifluoromethylphenyl)-3-trifluoromethylpyrazole] | 21 | – | pest or weed control at 500 ppm [2]: 98% |
| CCOC(=O)Nc1c(C#N)c(C(F)(F)F)nn1-c1c(Cl)cc(C(F)(F)F)cc1Cl [Compound 149, 4-Cyano-1-(2,6-dichloro-4-trifluoromethylphenyl)-5-ethoxycarbonylamino-3-trifluoromethylpyrazole] | 100 | – | mortality at 500 ppm [2, 3]: 100% |

| Structure (SMILES) | pest or weed control at 10 ppm [1] [%] | mortality at 500 ppm [2] [%] | also measured |
| --- | --- | --- | --- |
| CC(=O)N(C(=O)C(C)(C)C)c1c(C#N)c(C(F)(F)F)nn1-c1c(Cl)cc(C(F)(F)F)cc1Cl [Compound 176, 4-Cyano-1-(2,6-dichloro-4-trifluoromethylphenyl)-5-(N-acetyl-N-trimethylacetylamino)-3-trifluoromethylpyrazole] | – | 100 | – |
| CCC(=O)N(C(=O)C(C)(C)C)c1c(C#N)c(C(F)(F)F)nn1-c1c(Cl)cc(C(F)(F)F)cc1Cl [Compound 177, 4-Cyano-1-(2,6-dichloro-4-trifluoromethylphenyl)-5-(N-propionyl-N-trimethylacetylamino)-3-trifluoromethylpyrazole] | – | 100 | – |
| CC(C)(C)C(=O)Nc1c(C#N)c(Cl)nn1-c1c(Cl)cc(C(F)(F)F)cc1Cl [Compound 180, 3-Chloro-1-(2,6-dichloro-4-trifluoromethylphenyl)-4-cyano-5-trimethylacetylaminopyrazole] | – | 100 | – |
| CCOC(=O)N(C(=O)OCC)c1c(C#N)c(Cl)nn1-c1c(Cl)cc(C(F)(F)F)cc1Cl [Compound 181, 3-Chloro-1-(2,6-dichloro-4-trifluoromethylphenyl)-4-cyano-5-bis(ethoxycarbonyl)aminopyrazole] | – | 100 | – |
| CCOC(=O)Nc1c(C#N)c(Cl)nn1-c1c(Cl)cc(C(F)(F)F)cc1Cl [Compound 182, 3-Chloro-1-(2,6-dichloro-4-trifluoromethylphenyl)-4-cyano-5-ethoxycarbonylaminopyrazole] | – | – | mortality at 5 ppm [1]: 100% |
| CCOC(=O)N(C(C)=O)c1c(C#N)c(C(F)(F)F)nn1-c1c(Cl)cc(C(F)(F)F)cc1Cl [Compound 184, 5-(N-Acetyl-N-ethoxycarbonylamino)-4-cyano-1-(2,6-dichloro-4-trifluoromethylphenyl)-3-trifluoromethylpyrazole] | – | 100 | – |
| Nc1c(I)c(C(F)(F)F)nn1-c1c(Cl)cc(C(F)(F)F)cc1Cl [Compound 189, 5-Amino-1-(2,6-dichloro-4-trifluoromethylphenyl)-4-iodo-3-trifluoromethylpyrazole] | – | 100 | – |
| N#Cc1cn(-c2c(Cl)cc(C(F)(F)F)cc2Cl)nc1F [Compound 195, 4-Cyano-1-(2,6-dichloro-4-trifluoromethylphenyl)-3-fluoropyrazole] | – | 100 | – |
| CCNS(=O)(=O)c1c(C(F)(F)F)nn(-c2c(Cl)cc(C(F)(F)F)cc2Cl)c1N [Compound 198, 5-Amino-1-(2,6-dichloro-4-trifluoromethylphenyl)-4-(N-ethylsulphamoyl)-3-trifluoromethylpyrazole] | – | – | mortality at 5 ppm [1]: 100% |
| CNS(=O)(=O)c1c(C(F)(F)F)nn(-c2c(Cl)cc(C(F)(F)F)cc2Cl)c1N [Compound 199, 5-Amino-1-(2,6-dichloro-4-trifluoromethylphenyl)-4-(N-methylsulphamoyl)-3-trifluoromethylpyrazole] | – | – | mortality at 5 ppm [1]: 100% |
| N#Cc1c(F)nn(-c2c(Cl)cc(C(F)(F)F)cc2Cl)c1N [Compound 202, 5-Amino-1-(2,6-dichloro-4-trifluoromethylphenyl)-4-cyano-3-fluoropyrazole] | – | 100 | – |
| C[Si](C)(C)c1c(C#N)c(C(F)(F)F)nn1-c1c(Cl)cc(C(F)(F)F)cc1Cl [Compound 205, 4-Cyano-1-(2,6-dichloro-4-trifluoromethylphenyl)-3-trifluoromethyl-5-trimethylsilylpyrazole] | – | – | mortality at 5 ppm [1]: 100% |
| C[Si](C)(C)Cc1c(C#N)c(C(F)(F)F)nn1-c1c(Cl)cc(C(F)(F)F)cc1Cl [Compound 211, 4-Cyano-1-(2,6-dichloro-4-trifluoromethylphenyl)-3-trifluoromethyl-5-trimethylsilylmethylpyrazole] | – | 100 | – |
| N#Cc1c(C(F)(F)F)nn(-c2c(Cl)cc(C(F)(F)F)cc2Cl)c1C#N [Compound 213, 1-(2,6-Dichloro-4-trifluoromethylphenyl)-4,5-dicyano-3-trifluoromethylpyrazole] | – | 100 | – |
| C[S+]([O-])c1c(C#N)c(C(F)(F)F)nn1-c1c(Cl)cc(C(F)(F)F)cc1Cl (centres unmarked) [Compound 220, 4-Cyano-1-(2,6-dichloro-4-trifluoromethylphenyl)-5-methylsulphinyl-3-trifluoromethylpyrazole] | – | – | mortality at 5 ppm [1]: 100% |
| CCS(=O)(=O)c1c(C(F)(F)F)nn(-c2c(Cl)cc(C(F)(F)F)cc2Cl)c1N [Compound 221, 5-Amino-1-(2,6-dichloro-4-trifluoromethylphenyl)-4-ethylsulphonyl-3-trifluoromethylpyrazole] | – | – | mortality at 5 ppm [1]: 100% |
